2 molecules from patent publication US20180237362A1, “NOVEL POLYGODIAL ANALOGS FOR THE TREATMENT OF CANCER AND OTHER PROLIFERATIVE DISEASES” (THE BOARD OF REGENTS OF THE UNIVERSITY OF TAXAS SYSTEM, priority 2015, published 2018) can be followed below.

Series [1] has as its system Cal27-derived tumors. Nature of the series: Mouse xenograft model, Cal27. The format is in vivo, athymic nude mice. The protocol: Six-week old female athymic nude mice were used in laminar air-flow cabinet in pathogen-free conditions. They were acclimated for one week prior to the start of the study and kept at controlled temperature and humidity, with food and water. Mice were injected subcutaneously in the flank with 2×10^6 Cal27 cells or HeLa cells in 0.1 mL of sterile PBS. When the tumors reached 100 mm^3 (Cal27) and 150 mm^3 (HeLa), the mice were stratified into 4 groups, […], polygodial, P10, P3 and P27 at the concentrations noted in the figure legends.

Series [2] concerns uterine sarcoma MES-SA cells. In words: MTT antiproliferative assay, MES-SA. The following applies: 48 h treatment, relative to DMSO control, read-out: GI50 in vitro values, MES-SA. In kind it is cell-based, human. The protocol:
(§1) Human mammary carcinoma MCF-7 (ATCC HTB22) cells were cultured in RPMI supplemented with 10% FBS. The U87 cells (ATCC HTB-14) were cultured in DMEM culture medium, while the A549 cells (DSMZ ACC107) were cultured in RPMI culture medium supplemented with 10% heat-inactivated FBS. The GBM Hs683 (ATCC HTB-138) cells were cultivated in DMEM supplemented with 10% FBS. The human uterine sarcoma MES-SA (ATCC CRL1966) and MES-SA/D×5 cells were cultured in RPMI-1640 medium supplemented with 10% FBS with MES SA/D×5 maintained in the presence of 500 nM Doxorubicin (Sigma). SKMEL-28 cells (ATCC HTB72) and U373 GBM cells (ECACC 08061901) were cultured in RPMI culture medium supplemented with 10% heat-inactivated FBS. Cell culture media were supplemented with 4 mM glutamine (Lonza code BE17-605E), 100 μg/mL gentamicin (Lonza code 17-5182), and penicillin-streptomycin (200 units/ml and 200 μg/ml) (Lonza code 17-602E). The MDA-MB-231 (ATCC HTB-26) epithelial mammary adenocarcinoma cells were cultured in Eagle's minimum essential medium (EMEM; Invitrogen) containing 5% fetal calf serum (FCS, Cambrex), 2 mM L-glutamine (Invitrogen), 0.06% HEPES (Invitrogen) and penicillin (50 IU/ml)/streptomycin (50 µg/ml; Invitrogen) at 37° C. in a humidified atmosphere of 5% CO2 in air. Transformed mouse NPCs were cultured in suspension under neurosphere conditions at 37° C. in a humidified atmosphere of […] and 5% CO2 in DMEM F12 (Invitrogen 11320-074) supplemented with 1×B27 supplement (Invitrogen 17504-044), 5% penicillin-streptomycin (Biochrom 10378-017), 10 ng/ml EGF (R&D systems 236-EG), 10 ng/ml FGF (PeproTech 100-18B).
Antiproliferative properties of the synthesized compounds were evaluated by the MTT assay. All compounds were dissolved in DMSO at a concentration of either 100 μM or 50 μM prior to cell treatment. The cells were trypsinized and seeded at various cell concentrations depending on the cell type. […]
Background: Tetrazolium dyes change colour on reduction, which living cells bring about.

In series [3] the test system is MDR uterine sarcoma cell line MES-SA/Dx5. In words: MTT antiproliferative assay, MDR MES-SA/Dx5. The format is cell-based, human. The protocol: as §1
Antiproliferative properties of the synthesized compounds were evaluated by the MTT assay. All compounds were dissolved in DMSO at a concentration of either 100 μM or 50 μM prior to cell treatment. The cells were trypsinized and seeded at various cell concentrations depending on the cell type. The cells were grown for 24 h to 72 h, treated with compounds at concentrations ranging from 0.001 to 100 μM and incubated for 48 or 72 h in 100 or 200 μL media depending on the cell line used. The number of experiments and replicates varied depending on the cell line. Cells treated with 0.1% DMSO were used as a negative control; 1 μM PAO was used as a positive control.
Selection of the MES-SA/D×5 cell line was done according to Harker et al. (Harker & Sikic, 1985). The cells were split and allowed to adhere overnight. The next day cells were initially exposed to doxorubicin (DOX) at the concentration of 100 nM, which represented the GI50 concentration. The cells were maintained at this DOX concentration until their growth rate reached that of the untreated cells. The DOX concentration was then increased in two-fold increments following the same growth criteria at each concentration to a final DOX concentration of 500 nM. Each new DOX concentration required approximately 2 passages to reach the growth rate of the untreated cells.
Often, tumors initially respond to chemotherapy but eventually become refractory to the continuing treatment. Such acquired resistance commonly occurs through the development of a multi-drug resistant phenotype (MDR) (Gottesman et al., 2002 and Saraswathy & Gong, 2013) affecting many common chemotherapeutic agents, including the vinca alkaloids (Chen et al., 2000) and taxanes (Geney et al., 2002). In addition, the development of apoptosis resistance and MDR mechanisms is often related and concurrent (Ruefli et al., 2002 and Johnstone et al., 1999), and thus it was of interest to evaluate 5 against MDR cells. Towards this end, the MDR uterine sarcoma cell line MES-SA/D×5, established by growing the parent uterine sarcoma MES-SA in the presence of increasing concentrations of doxorubicin and resistant to multiple functionally and structurally unrelated molecules (Harker & Sikic, 1985), was utilized.

Take `CC1(C)CCC[C@]2(C)[C@@H](C=O)C(C=O)=CC[C@@H]12` [Compound 1, Polygodial]: the “anti-tumor effect, Cal27-derived tumors” value in series [1] (40 μg/100 μl intra-tumor injection every other day for 18 days, no significant difference between polygodial and P27) was “significant anti-tumor effects”. Also, in series [1] (days 2-4, intra-tumor injection), the “inflammatory response, Cal27 xenograft mice” value was “notable inflammatory response”.

As to `COC(=O)/C=C/C1=CC[C@H]2C(C)(C)CCC[C@]2(C)[C@H]1C=O` [Compound 5], the GI50 is 40 µM in series [2] and 45 µM in series [3] (48 h treatment, MTT assay, relative to DMSO control, read-out: GI50 in vitro values, MES-SA/Dx5). Also, the “change of potency against MES-SA/Dx5 MDR cell line as compared with parent MES-SA cells” value in series [3] (48 h MTT) is given as “little variation in the sensitivities of the two cell lines”.
